{"source": "patent US20130324520A1", "about": "“RXRG MODULATORS FOR THE TREATMENT OF CANCER” (SLOAN-KETTERING INSTITUTE FOR CANCER RESEARCH, priority 2011, published 2013)", "key": {"RB177": {"system": "RB177", "assay": "RXRG ligands on retinoblastoma cell growth", "assay_type": "cell-based", "description": "(§1) Colon, lung, pancreatic cancer, retinoblastoma and other cell lines were cultured in culture medium consisting of IMDM (Medium Lab, MSKCC, NY) with 10% FBS (SH3008803, HyClone, Thermo Scientific), 2 mM glutamine (Invitrogen), 55 μM beta-mercaptoethanol (Invitrogen), 1% Penicillin/streptomycin (Invitrogen), and 2.5 μg/ml Plasmocin (Invivogen), at 37° C. in a humidified incubator with 5% CO2. Melanoma cell lines were culture in RPMI with above additives.\n(§2) Colon, lung, pancreatic, breast, prostate cancer cell lines and other cancer cell lines were cultured in 10 cm dishes or 24 well plates with complete IMDM or RPMI (for melanoma) with 30-50% confluence. […] DMSO was used for control. After 3-6 days treatment, cells were collected and counted with trypan blue. Dose-effectiveness curves were generated with series dilution of compounds in medium for treatment of cells."}, "[1]": {"system": "RB1 mutated retinoblastoma", "assay": "RXRG ligands on retinoblastoma cell growth", "assay_type": "cell-based", "description": "as §1, §2"}, "PC941102": {"system": "PC941102", "assay": "Drug treatment on cancer cell lines, cell counting", "assay_type": "cell-based", "settings": "KRAS mutated pancreatic cancer (PC1102)", "source_text": "(§3) DMSO was used for control."}, "H3255": {"system": "H3255", "assay": "Drug treatment on cancer cell lines, cell counting", "assay_type": "cell-based", "settings": "EGFR mutated lung cancer", "source_text": "as §3"}, "PC930201": {"system": "PC930201", "assay": "Drug treatment on cancer cell lines, cell counting", "assay_type": "cell-based", "settings": "KRAS mutated pancreatic cancer (PC0201)", "source_text": "as §3"}, "H1975 [2]": {"system": "H1975", "assay": "Drug treatment on cancer cell lines, cell counting", "assay_type": "cell-based", "settings": "EGFR mutated lung cancer", "source_text": "as §3"}, "PC931019 [3]": {"system": "PC931019", "assay": "Drug treatment on cancer cell lines, cell counting", "assay_type": "cell-based", "settings": "for cell growth: KRAS mutated pancreatic cancer (PC1019); for growth inhibition, single agent / effect of combination with HX531 on growth: day 9; for growth inhibition, single agent: 6 uM HX531, 10 uM PD98059, 100 nM PD0325901; for effect of combination with HX531 on growth: MEK inhibitor plus 6 uM HX531", "source_text": "as §3"}, "H820": {"system": "H820", "assay": "Drug treatment on cancer cell lines, cell counting", "assay_type": "cell-based", "settings": "EGFR mutated lung cancer", "source_text": "as §3"}, "H1650": {"system": "H1650", "assay": "Drug treatment on cancer cell lines, cell counting", "assay_type": "cell-based", "settings": "EGFR mutated lung cancer", "source_text": "as §3"}, "[4]": {"system": "EGFR and KRAS activated NSCLC, pancreatic, and colon cancers", "assay": "Drug treatment on cancer cell lines, cell counting (group of lines)", "assay_type": "cell-based", "settings": "for cell growth / proliferation: KRAS or EGFR mutant colon, NSCLC, pancreatic, hepatoma cells, concentration not given", "source_text": "as §3"}, "[5]": {"system": "PTEN mutated prostate cancer, small cell lung cancer, and breast cancer", "assay": "Drug treatment on cancer cell lines, cell counting (group of lines)", "assay_type": "cell-based", "settings": "PTEN mutant lines as a group", "source_text": "as §3"}, "HCT116": {"system": "HCT116", "assay": "Drug treatment on cancer cell lines, cell counting", "assay_type": "cell-based", "settings": "day 3; for growth inhibition, single agent: 6 uM HX531, 10 uM PD98059, 100 nM PD0325901; for effect of combination with HX531 on growth: MEK inhibitor plus 6 uM HX531", "source_text": "as §3"}, "A549": {"system": "A549", "assay": "Drug treatment on cancer cell lines, cell counting", "assay_type": "cell-based", "settings": "for effect of combination with HX531 on growth: MEK inhibitor plus HX531; for growth inhibition, single agent: day 3, 6 uM HX531, 10 uM PD98059, 100 nM PD0325901", "source_text": "as §3"}, "[6]": {"settings": "patients; cited from earlier work"}, "Saos2": {"system": "Saos2", "assay": "Drug treatment on cancer cell lines, cell counting", "assay_type": "cell-based", "settings": "UVI3003 10 uM (FIG. 23)", "source_text": "as §3"}, "H1755": {"system": "H1755", "assay": "Drug treatment on cancer cell lines, cell counting", "assay_type": "cell-based", "settings": "UVI3003 10 uM (FIG. 23)", "source_text": "as §3"}, "MDA-MB-468": {"system": "MDA-MB-468", "assay": "Drug treatment on cancer cell lines, cell counting", "assay_type": "cell-based", "settings": "UVI3003 10 uM (FIG. 23)", "source_text": "as §3"}, "H1975 [7]": {"system": "H1975", "assay": "Cell cycle analysis", "assay_type": "cell-based", "settings": "EGFR mutant NSCLC, day 3"}, "PC931019 [8]": {"system": "PC931019", "assay": "Cell cycle analysis", "assay_type": "cell-based", "settings": "KRAS mutant pancreatic cancer, day 3", "description": "After drug treatment, cells were collected for cell cycle analysis, RNA isolation, quantitative PCR, western blot, and immunofluorescence. For cell cycle analysis, retinoblastoma, neuroblastoma, lung, pancreatic, and colon cancer cells were collected and dissociated on days 3, 5, 7, 9, 11, and 16 after treatment. Cells were fixed by 70% cold ethanol alcohol while vortex, and put in −20° C. for storage. […] At 24 hours after treatment, 4 ug/ml Aphidicolin was added to cells with compounds for 24 hr. Aphidicolin was removed by centrifugation and PBS wash, and then added to new wells with fresh medium and compounds. Cells were collected and fixed before addition of aphidicolin, immediately after removal of aphidicolin, and every two hours thereafter until 16-18 hours.\nThe tubes with cells were taken out of the freezer and alcohol was removed by centrifugation. 150 ul of 0.06 mg/ml propidium iodide with 0.1% NF40 was added to the cells, and then 100 ul of 2 mg/ml of RNase was added to the cells. These were mixed well and incubated at 37° C. for 30 min. The cell ploidy according to DNA contents were measured in FACSCalibur with FL3-Width and FL3-Height as the parameter. Flowjo was used for analysis of the cell cycle changes."}, "SCLC": {"system": "SCLC", "assay": "Drug treatment on cancer cell lines, cell counting (group of lines)", "assay_type": "cell-based", "settings": "UVI3003 10 uM (FIG. 23); some PTEN mutated SCLC", "source_text": "as §3"}, "normal fibroblasts WI38": {"system": "normal fibroblasts WI38", "assay": "Drug treatment on cell lines, cell counting", "assay_type": "cell-based", "settings": "UVI3003 10 uM (FIG. 23)", "source_text": "as §3"}}, "note": "“Also recorded” adds a separate entry of the source.", "data": [{"compound": "CC1=C(/C=C/C(C)=C\\C=C\\C(C)=C\\C(=O)O)C(C)(C)CCC1", "note": "[9 cis RA, 9-cis-Retinoic acid]", "values": [{"measurement": "cell growth", "setting": "RB177", "value": "suppressed cell growth"}, {"measurement": "retinoblastoma cell growth", "setting": "[1]; in vitro", "value": "suppressed retinoblastoma cell growth"}]}, {"compound": "CCCCCCOc1cc2c(cc1N(C)c1ncc(C(=O)O)cn1)C(C)(C)CCC2(C)C", "note": "[PA452]", "values": [{"measurement": "cell growth", "setting": "PC941102", "value": "sensitive"}, {"measurement": "cell growth", "setting": "H3255", "value": "sensitive"}, {"measurement": "cell growth", "setting": "PC930201", "value": "sensitive"}, {"measurement": "cell growth", "setting": "H1975 [2]", "value": "sensitive"}, {"measurement": "cell growth", "setting": "PC931019 [3]", "value": "sensitive"}, {"measurement": "cell growth", "setting": "H820", "value": "sensitive"}, {"measurement": "cell growth", "setting": "H1650", "value": "sensitive"}, {"measurement": "cell growth / proliferation", "setting": "[4]", "value": "efficiently suppress"}, {"measurement": "cell growth", "setting": "[5]", "value": "suppress the growth"}]}, {"compound": "COc1cccc(-c2cc(=O)c3ccccc3o2)c1N", "note": "[PD98059]", "values": [{"measurement": "growth inhibition, single agent", "setting": "HCT116", "value": "moderate growth inhibition"}, {"measurement": "effect of combination with HX531 on growth", "setting": "HCT116", "value": "Synergistic effects"}, {"measurement": "effect of combination with HX531 on growth", "setting": "A549", "value": "synergistic effects"}, {"measurement": "growth inhibition, single agent", "setting": "A549", "value": "moderate growth inhibition"}, {"measurement": "growth inhibition, single agent", "setting": "PC931019 [3]", "value": "growth inhibition"}, {"measurement": "effect of combination with HX531 on growth", "setting": "PC931019 [3]", "value": "same synergistic effects"}]}, {"compound": "O=C(NOC[C@H](O)CO)c1ccc(F)c(F)c1Nc1ccc(I)cc1F", "note": "[PD0325901]", "values": [{"measurement": "growth inhibition, single agent", "setting": "HCT116", "value": "moderate growth inhibition"}, {"measurement": "effect of combination with HX531 on growth", "setting": "HCT116", "value": "Synergistic effects"}, {"measurement": "effect of combination with HX531 on growth", "setting": "A549", "value": "synergistic effects"}, {"measurement": "growth inhibition, single agent", "setting": "A549", "value": "moderate growth inhibition"}, {"measurement": "growth inhibition, single agent", "setting": "PC931019 [3]", "value": "growth inhibition"}, {"measurement": "effect of combination with HX531 on growth", "setting": "PC931019 [3]", "value": "same synergistic effects"}, {"measurement": "outcome of clinical trial (toxicity)", "setting": "[6]", "value": "terminated because of high toxicity in patients"}]}, {"compound": "CCCCCOc1cc2c(cc1-c1cc(/C=C/C(=O)O)ccc1O)C(C)(C)CCC2(C)C", "note": "[UVI3003]", "values": [{"measurement": "cell growth", "setting": "PC941102", "value": "sensitive"}, {"measurement": "cell growth", "setting": "H3255", "value": "sensitive"}, {"measurement": "relative cell number after treatment", "setting": "Saos2", "value": "not sensitive"}, {"measurement": "cell growth", "setting": "PC930201", "value": "sensitive"}, {"measurement": "cell growth", "setting": "H1975 [2]", "value": "sensitive"}, {"measurement": "relative cell number after treatment", "setting": "H1755", "value": "sensitive"}, {"measurement": "cell growth", "setting": "PC931019 [3]", "value": "sensitive"}, {"measurement": "cell growth", "setting": "H820", "value": "sensitive"}, {"measurement": "relative cell number after treatment", "setting": "MDA-MB-468", "value": "sensitive"}, {"measurement": "cell growth", "setting": "H1650", "value": "sensitive"}, {"measurement": "cell cycle, G1-S transition", "setting": "H1975 [7]", "value": "inhibited G1-S transition"}, {"measurement": "cell cycle, G1-S transition", "setting": "PC931019 [8]", "value": "similarly sensitive; also recorded: inhibited G1-S transition"}, {"measurement": "relative cell number after treatment", "setting": "[1]; UVI3003 10 uM (FIG. 23)", "value": "not sensitive"}, {"measurement": "cell growth / proliferation", "setting": "[4]", "value": "efficiently suppress"}, {"measurement": "relative cell number after treatment", "setting": "[4]; UVI3003 10 uM (FIG. 23), incl. gastric cancer", "value": "sensitive"}, {"measurement": "cell growth", "setting": "[5]", "value": "suppress the growth"}, {"measurement": "relative cell number after treatment", "setting": "SCLC", "value": "sensitive"}, {"measurement": "relative cell number after treatment", "setting": "normal fibroblasts WI38", "value": "not sensitive"}]}]}
